What was measured:
Experiment in all cases: Mitomycin C growth arrest of fibroblasts (weekly cell counting, colony inspection)
[1] = test system: human telomerase immortalized fibroblast line (MDX12); conditions: MMC treatment for 5 h
Method: (§1) The rat fibroblast cell line (CRL 1213), the FGF1-transfected rat fibroblast cell line (1175/CRL 1213), the human telomerase immortalized fibroblast line (MDX12), and the primary human fibroblasts (EDX1) were each growth arrested using the following method. Fibroblasts were grown in DMEM+10% FCS, 25 mM Hepes, 1 mM pyruvate, 2 mM L-Gln, 100 U/ml penicillin, 100 μg/ml streptomycin in T75 flasks. […] The cells were then rinsed with PBS and detached with 0.05% trypsin/0.02% EDTA. The remaining cells were plated at densities of 100 to 5000 cells/cm^2 in T25-flasks respectively (10 flasks for each density). These cells were incubated at 37° C. with 2 media changes per week.
(§2) Efficiency of cell growth arrest was measured by weekly counting of cells (using a hemacytometer) cultured in the flasks plated at a density of 5000 cells/cm^2 and by inspection of appearing colonies in the flasks plated at a density of 100 cells/cm^2. Changes in cell morphology were also examined.

[2] = test system: rat fibroblast cell line (CRL 1213); type: cell-based; conditions: MMC treatment for 5 h
Method: as §1, §2

[3] = test system: primary human fibroblasts (EDX1); conditions: MMC treatment for 5 h
Method: as §1, §2

[4] = test system: FGF1-transfected rat fibroblast cell line (1175/CRL 1213); type: cell-based
Method: as §1, §2

## CO[C@@]12[C@H](COC(N)=O)C3=C(C(=O)C(C)=C(N)C3=O)N1C[C@@H]1N[C@@H]12 [mitomycin C]
[1]
  concentration sufficient to growth arrest: 8 µg/mL
[2]
  concentration optimal to growth arrest: 2 µg/mL
[3]
  concentration sufficient to growth arrest: 8 µg/mL
[4]
  efficacy of concentrations below 1 μg/ml: not efficacious
[4]; MMC treatment for 5 h
  concentration at which cells were growth arrested: 1 µg/mL

Source: patent publication US9173906B2, “Methods and compositions for tissue regeneration” (SMITH & NEPHEW, INC., priority 2002, dated 2015)
